Source: patent publication US12528790B2, “Amide derivative having antiviral activity” (Shionogi & Co., Ltd., priority 2020, dated 2026)
Like-named read-outs stand apart in the source and are kept apart here.

Key:
RSV A2 strain = test: In vitro CPE (CytoPathic Effect) inhibition effect evaluation test, RSV type A; format: cell-based
How it was run: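 EC50 is the concentration giving 50% inhibition of virus-induced cytopathic effect, fitted by nonlinear regression from CellTiter-Glo 2.0 viability. Compounds in 3-fold series were co-incubated at 37 °C with HEp-2 cells and RSV: A2 strain for 4 days, B (Wash/18537) for 5 days; uninfected wells served as control.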

[1] = system: RSV B (Wash/18537 strain); test: In vitro CPE (CytoPathic Effect) inhibition effect evaluation test, RSV type B; format: cell-based
Description: The test sample is diluted in advance to an appropriate concentration with DMSO, and 3-fold series of serial dilutions were prepared on a 384-well plate (0.32 μL/well). HEp-2 cells (CCL-23; ATCC) adjusted at appropriate number (2.4×10^5 cells/mL) in 2% FBS E-MEM (prepared by adding kanamycin and FBS to Eagle's Minimum Essential Medium; Invitrogen) were added at 12.5 μL/well to the 384-well plate previously aliquoted with the test samples. The RSV A2 strain was diluted to an appropriate concentration in a culture medium and added to the 384-well plate containing the test sample at 12.5 μL/well. The culture medium was added additionally to the 384-well plate, and the test was started with 50 μL/well. Control wells were prepared with only virus-free culture medium. The plate was incubated in a 5% CO2 incubator at 37° C. for 4 days, and the plate was then placed at room temperature for 30 minutes. CellTiter-Glo (registered trademark) 2.0 assay (Promega) was added at 15 μL/well, mixed for 30 seconds, and the plate was placed for approximately 1 hour. The luminescent signal was then measured by EnVision (PerkinElmer). The inhibitory effect of the test agents on RSV-induced CPE was calculated as 0% and 100% inhibition rate for each sample concentration based on the level of remaining viable cells by CellTiter-Glo (registered trademark) 2.0, with the EC50 value for each compound calculated by nonlinear regression as the concentration that inhibits RSV-induced CPE by 50%. In the case of evaluation against RSV type B, RSV B (Wash/18537 strain) was infected in the same manner as the type A, cultured for 5 days, and quantitated in the same manner as for the A2 strain.

[2] = human respiratory syncytial virus, inhibitory effect against RSV type A (RSV A2 strain), HEp-2 cells, CPE inhibition, read-out: EC50
[3] = human respiratory syncytial virus, inhibitory effect against RSV type B, CPE inhibition, read-out: EC50
[4] = human respiratory syncytial virus, HEp-2, 96 h, read-out: EC50, inhibitory effect against RSV type A (CPE inhibition)
[5] = human respiratory syncytial virus, HEp-2, 120 h, HEp-2 cells, RSV B (Wash/18537 strain), 5 days, CellTiter-Glo, read-out: EC50, inhibitory effect against RSV type B (CPE inhibition)

SMILES | EC50 (RSV A2 strain; [2]) | EC50 [1, 3] | further results
O=C(NC1(C(=O)O)C2CC3CC(C2)CC1C3)c1cnc(N2CC3(CCCCC3)c3cc(OC4CCN(c5ncc(F)cn5)CC4)ncc32)nc1C(F)(F)F (stereo not drawn) [Compound I-558] | < 10 nM | < 10 nM | –
Cc1nnc(N2CCC(Oc3ccc4c(c3)C3(CCCCC3)CN4c3ncc(C(=O)NC4(C(=O)O)C5CC6CC(C5)CC4C6)c(C(F)(F)F)n3)CC2)o1 (stereo not drawn) [Compound I-534] | < 10 nM | < 10 nM | –
C/C(=N\OC1CC(F)(F)C1)c1ccc2c(c1)C1(CCCCC1)CN2c1ncc(C(=O)NC2(C(=O)O)C3CC4CC(C3)CC2C4)c(C(F)(F)F)n1 (single isomer, unassigned) [Compound I-477] | 10 to 100 nM | 100 to 5000 nM | –
CC(F)(F)c1nc(N2CC3(CCCC3)c3cc(O[C@@H]4CCN(CC(F)(F)F)C4)ccc32)ncc1C(=O)NC1(C(=O)O)C2CC3CC(C2)CC1C3 (stereo partly drawn) [Compound I-598] | < 10 nM | < 10 nM | –
O=C(NC1(C(=O)O)C2CC3CC(C2)CC1C3)c1cnc(-c2cn(C3CC3)c3cc(O[C@H]4CC[C@@H](N5CC(F)(F)C5)CC4)ccc23)nc1C(F)(F)F (stereo partly drawn) [Compound I-543] | < 10 nM | < 10 nM | –
CC(F)(F)c1nc(N2CC3(CCCCC3)c3cc(O[C@H]4CC[C@H](N5CC(F)(F)C5)CC4)ncc32)ncc1C(=O)NC1(C(=O)O)C2CC3CC(C2)CC1C3 (stereo partly drawn) [Compound I-555] | < 10 nM | 10 to 100 nM | –
O=C(NC1(C(=O)O)C2CC3CC(C2)CC1C3)c1cnc(-c2cn(C3CCC(F)(F)CC3)c3cc(OC4CCC5(CC4)CN(CC(F)(F)F)C5)ccc23)nc1C(F)(F)F (stereo not drawn) [Compound I-370] | < 10 nM | 10 to 100 nM | –
CC(F)(F)CN1CCC(Oc2ccc3c(c2)C2(CCOCC2)CN3c2ncc(C(=O)NC3(C(=O)O)C4CC5CC(C4)CC3C5)c(C(C)(F)F)n2)CC1 (stereo not drawn) [Compound I-548] | < 10 nM | < 10 nM | –
O=C(NC1(C(=O)O)C2CC3CC(C2)CC1C3)c1cnc(N2CC3(CCCCC3)c3cc(OC4CCN(c5ncco5)CC4)ccc32)nc1C(F)(F)F (stereo not drawn) [Compound I-519] | < 10 nM | < 10 nM | –
O=C(NC1(C(=O)O)C2CC3CC(C2)CC1C3)c1cnc(-c2cn(C3CCC(F)(F)CC3)c3cc(C(=O)N4CCN(CC(F)(F)F)CC4)ccc23)nc1C(F)(F)F (stereo not drawn) [Compound I-418] | < 10 nM | < 10 nM | –
CCC(C)n1cc(-c2ncc(C(=O)NC3(C(=O)O)C4CC5CC(C4)CC3C5)c(C(F)(F)F)n2)c2ccc(O[C@H]3CC[C@H](N4CC(F)(F)C4)CC3)cc21 (stereo partly drawn) [Compound I-617] | < 10 nM | < 10 nM | –
N#CCCCCOc1ccc2c(c1)CCN2c1ncc(C(=O)NC2(C(=O)O)CCCCC2)c(C(F)(F)F)n1 [Compound I-5] | 10 to 100 nM | 100 to 5000 nM | –
O=C(NC1(C(=O)O)C2CC3CC(C2)CC1C3)c1cnc(N2CC3(CCCCC3)c3cc(OC4CCC(=NOC5CC(F)(F)C5)CC4)ccc32)nc1C(F)(F)F (racemic) [Compound I-475] | – | – | EC50 (RSV A2 strain; inhibitory effect against RSV type A (RSV A2 strain), HEp-2 cells, CPE inhibition, read-out: EC50): < 10 nM; EC50 ([1]; inhibitory effect against RSV type B, CPE inhibition, read-out: EC50): 10 to 100 nM
O=C(NC1(C(=O)O)C2CC3CC(C2)CC1C3)c1cnc(N2CC3(CCCC3)c3cc(OC4CCN(C5CC(F)(F)C5)CC4)ccc32)nc1C(F)(F)F (stereo not drawn) [Compound I-502] | < 10 nM | 10 to 100 nM | –
O=C(NC1(C(=O)O)C2CC3CC(C2)CC1C3)c1ccc(-c2cn(C3CCC(F)(F)CC3)c3cc(OC4CCN(c5ncccn5)CC4)ccc23)nc1C(F)(F)F (stereo not drawn) [Compound I-162] | – | – | EC50 (RSV A2 strain; [4]): 0.88 nM; EC50 [1, 5]: 3.3 nM
COCc1ccc(-c2ccc3c(c2)CCN3c2ncc(C(=O)NC3(C(=O)O)CCCCC3)c(C(F)(F)F)n2)cc1 [Compound I-9] | 10 to 100 nM | 100 to 5000 nM | –
CN(C)CCCc1nc(N2CC3(CCOCC3)c3cc(OC4CCN(c5ncccn5)CC4)ccc32)nc(C(F)(F)F)c1C(=O)NC1(C(=O)O)C2CC3CC(C2)CC1C3 (stereo not drawn) [Compound I-183] | < 10 nM | 10 to 100 nM | –
O=C(NC1(C(=O)O)C2CC3CC(C2)CC1C3)c1cnc(-c2cn(-c3ccccn3)c3cc(OC4CCN(c5ncc(F)cn5)CC4)ccc23)nc1C(F)(F)F (stereo not drawn) [Compound I-447] | < 10 nM | < 10 nM | –

SMILES | EC50 (RSV A2 strain; [2]) | EC50 [1, 3] | further results
CC(F)(F)c1nc(-c2cn(C3CCC(F)CC3)c3cc(O[C@H]4CC[C@H](N5CC(F)(F)C5)CC4)ccc23)ncc1C(=O)NC1(C(=O)O)C2CC3CC(C2)CC1C3 (single isomer, unassigned) [Compound I-568] | < 10 nM | < 10 nM | –
CC(F)(F)c1nc(N2CC3(CCCCC3)c3cc(C(=O)N4CCN(c5ncccn5)CC4)ccc32)ncc1C(=O)NC1(C(=O)O)C2CC3CC(C2)CC1C3 (stereo not drawn) [Compound I-453] | < 10 nM | < 10 nM | –
O=C(NC1(C(=O)O)C2CC3CC(C2)CC1C3)c1ccc(-c2cn(C3CC4C=CC(C3)O4)c3cc(OC4CCN(c5ncc(F)cn5)CC4)ccc23)nc1C(F)(F)F (single isomer, unassigned) [Compound I-434] | < 10 nM | < 10 nM | –
CC(F)(F)c1nc(N2CC3(CCCCC3)c3cc(OC4CCN(C5CC(F)(F)C5)CC4)ccc32)ncc1C(=O)NC1(C(=O)O)C2CC3CC(C2)CC1C3 (stereo not drawn) [Compound I-400] | < 10 nM | 10 to 100 nM | –
CC(F)(F)c1nc(N2CC3(CCOCC3)c3cc(OC4CCN(CC(F)(F)F)CC4)ccc32)ncc1C(=O)NC1(C(=O)O)C2CC3CC(C2)CC1C3 (stereo not drawn) [Compound I-465] | < 10 nM | < 10 nM | –
O=C(NC1(C(=O)O)C2CC3CC(C2)CC1C3)c1cnc(-c2cn(C3CCC(F)(F)CC3)c3cc(OC4CCC5(CC4)COC5)ccc23)nc1C(F)(F)F (stereo not drawn) [Compound I-256] | < 10 nM | < 10 nM | –
O=C(NC1(C(=O)O)C2CC3CC(C2)CC1C3)c1cnc(N2CC3(CCCCC3)c3cc(C(=O)N4CCN(c5ncc(F)cn5)CC4)ccc32)nc1C(F)(F)F (stereo not drawn) [Compound I-504] | < 10 nM | < 10 nM | –
CC(F)(F)c1nc(N2CC3(CC3)c3cc(OC4CCN(c5ncc(F)cn5)CC4)ccc32)ncc1C(=O)NC1(C(=O)O)C2CC3CC(C2)CC1C3 (stereo not drawn) [Compound I-603] | < 10 nM | < 10 nM | –
N#C[C@]12CC3C[C@H](C1)[C@](NC(=O)c1cnc(N4CC5(CCOCC5)c5cc(OC6CCN(c7ncccn7)CC6)ccc54)nc1C(F)(F)F)(C(=O)O)[C@@H](C3)C2 [Compound I-218] | < 10 nM | < 10 nM | –
O=C(NC1(C(=O)O)C2CC3CC(C2)CC1C3)c1cnc(N2CC3(CCCC3)c3cc(OC4CCC5(CC4)COC5)ccc32)nc1C(F)(F)F (stereo not drawn) [Compound I-488] | < 10 nM | < 10 nM | –
O=C(NC1(C(=O)O)C2CC3CC(C2)CC1C3)c1cnc(N2CC3(CCOCC3)c3cc(C(=O)N4CC(F)(F)C4)ccc32)nc1C(F)(F)F (stereo not drawn) [Compound I-491] | < 10 nM | 10 to 100 nM | –
O=C(NC1(C(=O)O)C2CC3CC(C2)CC1C3)c1cnc(-c2cn(C3CCC(F)(F)CC3)c3cc(O[C@H]4CC[C@@H](N5CC(F)(F)C5)CC4)ccc23)nc1C(F)(F)F (stereo partly drawn) [Compound I-415] | < 10 nM | < 10 nM | –
Cn1cc2c(n1)CCC(Oc1ccc3c(c1)C1(CCOCC1)CN3c1ncc(C(=O)NC3(C(=O)O)C4CC5CC(C4)CC3C5)c(C(F)(F)F)n1)C2 (racemic) [Compound I-189] | < 10 nM | < 10 nM | –
O=C(NC1(C(=O)O)C2CC3CC(C2)CC1C3)c1cnc(-c2c3ccc(OC4CCN(c5ncccn5)CC4)cc3nn2C2CCOCC2)nc1C(F)(F)F (stereo not drawn) [Compound I-182] | – | – | EC50 (RSV A2 strain; [4]): 0.39 nM; EC50 [1, 5]: 2.1 nM
O=C(NC1(C(=O)O)C2CC3CC(C2)CC1C3)c1cnc(-c2cn(C3CCC(F)(F)CC3)c3cc(OC4CC5(C4)CN(CC(F)(F)F)C5)ccc23)nc1C(F)(F)F (stereo not drawn) [Compound I-406] | < 10 nM | 10 to 100 nM | –
Cn1ncc2c1CCC(Oc1ccc3c(c1)C1(CCOCC1)CN3c1ncc(C(=O)NC3(C(=O)O)C4CC5CC(C4)CC3C5)c(C(F)(F)F)n1)C2 (single isomer, unassigned) [Compound I-190] | < 10 nM | < 10 nM | –
O=C(NCC(F)(F)F)c1ccc2c(c1)C1(CCOCC1)CN2c1ncc(C(=O)NC2(C(=O)O)C3CC4CC(C3)CC2C4)c(C(F)(F)F)n1 (stereo not drawn) [Compound I-483] | < 10 nM | 100 to 5000 nM | –
O=C(NC1(C(=O)O)C2CC3CC(C2)CC1C3)c1cnc(N2CC3(CCCCC3)c3cc(O[C@H]4CC[C@@H](N5CC(F)(F)C5)CC4)ccc32)nc1C(F)(F)F (stereo partly drawn) [Compound I-500] | < 10 nM | < 10 nM | –
